Data published in patent US20140301947A1, “METHODS TO PREDICT BINDING AFFINITY OF TSPO IMAGING AGENTS TO TSPO” (IMPERIAL INNOVATIONS LIMITED, priority 2011, published 2014).
Values joined by “and” are separate entries in the source; they are usually repeats but may differ in a detail not shown here. Equal entries are not always repeated. Where two headings read alike, the source gives them in different places.

How the values were obtained:
TSPO [1] = biological target: T1, TSPO (Homo sapiens, UniProt P30536); assay: Competition binding with [3H]PK11195 in human brain (method of J Nucl Med 2011;52:24-32); design: Ki MAB; Vinpocetine Ki, MAB; conditions: mixed affinity binders, single value, human brain; read-out: Ki MAB
Description: (§1) Thus, for example, the binding affinity of the compound may be determined in tissue derived from a HAB and in tissue derived from a LAB. An appropriate method may comprise the following steps: • obtain samples from human volunteers of tissue which contains TSPO (for example brain (for example for archive samples) or platelets (for example from blood)).
(§2) In more detail, as an example, a 48 well plate may be used, for example with 8-12 different concentrations of experimental drug for each experiment (be it the radiolabelled drug for saturation studies or the un-radiolabelled drug for competition studies). Concentrations may range from around 0.1 nM, increasing in roughly half logs (ie 0.1 nM, 0.3 nM, 1 nM, 3 nM etc) up to around 10,000 nM. 3-4 wells may be used for each concentration and the average taken to increase the precision around the estimate for each data point. The amount of tissue material required depends on how much TSPO is in the chosen tissue. For brain ˜100 micrograms of protein in each well (500 microlitres) may typically be used, giving a protein concentration of ˜200 micrograms/ml. Similar amounts may be used for platelets. For a tissue with very high TSPO levels (eg adrenal gland) a lot less protein would be needed.

TSPO [2] = biological target: T1, TSPO; assay: as above; design: from tissue; host or cells: human brain (membrane preparation, by the cited method)
Description: as §1, §2
Target sequence in this assay (P30536 2-169): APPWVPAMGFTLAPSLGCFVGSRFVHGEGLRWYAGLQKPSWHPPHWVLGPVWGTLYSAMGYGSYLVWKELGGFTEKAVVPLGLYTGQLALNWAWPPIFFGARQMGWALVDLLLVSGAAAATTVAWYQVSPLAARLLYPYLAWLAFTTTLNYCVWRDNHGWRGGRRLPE

TSPO [3] = biological target: T2, TSPO (Homo sapiens, UniProt P30536, T147A); assay: as above; design: from tissue; host or cells: human brain (membrane preparation, by the cited method); conditions: human brain
T2 sequence (P30536 2-169 T147A): as the sequence (P30536 2-169) above, with T146A counted along it
Description: as §1, §2

TSPO [4] = assay: as above; conditions: for ratio of specific signal, LAB: LAB set to 1; for LAB/HAB: ratio of Ki LAB to Ki HAB; for ratio of specific signal, HAB / ratio of specific signal, MAB: relative to LAB = 1
Description: as §1, §2

TSPO [5] = assay: Autoradiography with [18F]FEPPA on slides previously characterised with [3H]PBR28; type: binding; conditions: LAB slide versus HAB and MAB slides
Description: FIG. 4: Autoradiograhpy (above) with [^18F]FEPPA (structure below). The sample slides in the figure have been previously characterised with [^3H]PBR28 and are all from HABs and MABs, but for the slide second from the left which is a LAB.

TSPO [6] = assay: Competition radioligand binding assay with [3H]PK11195 and unlabelled GE1 in HABs and LABs; design: species or system human; conditions: LAB mean Ki / HAB mean Ki
Description: (§3) FIG. 6: Competition radioligand binding assay with [3H]
(§4) Binding assays were performed as for the other compounds, as described above. The compound concentrations used were 10000 nM, 3000 nM. 1000 nM, 300 nM, 100 nM. 30 nM, 10 nM, 3 nM, 1 nM, 0.3 nM and 0.03 nM. 6 HABS and 6 LABs were used.

TSPO [7] = biological target: T1, TSPO; assay: as above; design: from tissue; host or cells: human brain (membrane preparation, by the cited method)
Description: as §3, §4
Target sequence in this assay (P30536 2-169): as the sequence (P30536 2-169) above

TSPO [8] = biological target: T2, TSPO; assay: as above; design: from tissue; host or cells: human brain (membrane preparation, by the cited method)
Description: as §3, §4

TSPO [9] = biological target: T1, TSPO; assay: Competition binding assay, unlabelled PBR28 displacing [3H]PK11195 in human platelet membranes; design: from tissue; conditions: platelets, mean±SEM
Description: (§5) The study protocol, volunteer information and informed consent forms were approved by the local Research Ethics Committee. Forty-one healthy volunteers (29 male, 12 female, mean age 36.3±1.4 years) were recruited. […] Venous blood (50 ml) was drawn into EDTA-containing tubes, and separated into a lymphocyte-rich bottom layer (for genetic analysis) and platelet-rich top layer by centrifugation (180×g, 15 min, 4° C.). The platelet-rich layer (for binding assays) was re-centrifuged (1800×g, 15 min, 4° C.) to produce a platelet-containing pellet. Platelet membranes were prepared as previously described (5).
(§6) Binding data were analysed using GraphPad Prism 5.0. Single site and two site competition models were fitted using the least squares algorithm and model selection was compared using an F-test. The null hypothesis, that the data fitted a single site model, was rejected if the p value was less than 0.05. […] MABs were defined as subjects with two binding sites. Data are expressed as the mean±standard error of the mean (SEM).
Target sequence in this assay (P30536 2-169): as above

TSPO [10] = biological target: T2, TSPO; assay: as above; design: from tissue; conditions: platelets, mean±SEM
Description: as §5, §6

TSPO [11] = biological target: T1, TSPO; design: from tissue; host or cells: human brain (membrane preparation, by the cited method); conditions: background, reference (5); read-out: Ki values for LABs; cited from earlier work
Target sequence in this assay (P30536 2-169): as above

TSPO [12] = biological target: T2, TSPO; design: from tissue; host or cells: human brain (membrane preparation, by the cited method); conditions: background, reference (5); read-out: Ki values for HABs; cited from earlier work
TSPO [13] = biological target: T2, TSPO; assay: Competition binding assay with [3H]PK11195 and unlabelled vinpocetine in human brain membranes; design: from tissue; host or cells: human brain (membrane preparation, by the cited method); conditions: A/A subjects, high affinity binder, human brain, mean (SEM); read-out: Vinpocetine Ki, HAB
Description: (§7) Tissue was obtained from the UK Multiple Sclerosis (MS) Tissue Bank at Imperial College. All tissue blocks obtained included only “normal appearing” tissue, without immunohistochemical evidence of demyelination or significant inflammatory infiltrate. The tissue was stored at −80° C. until use. Tissue blocks from 15 donors (5 each from HAB, MAB and LAB donors) were used. The binding affinity classification for each tissue block had been established previously using PBR28 (Owen et al. 2010).
(§8) Tissue blocks were homogenised in 10 times weight for volume (w/v) buffer ([…], 5 mM Tris base, 1 mM MgCl2, pH 7.4, 4° C.). […]
(§9) Following incubation, assays were terminated via filtration through Whatman GF/B filters, followed by 3×1 ml washes with ice-cold wash buffer (50 mM Tris Base, 1.4 mM MgCl2, pH 7.4, 4° C.). […] Scintillation fluid (4 ml/vial, Perkin Elmer Ultima Gold MV) was added and vials counted on a Perkin Elmer Tricarb 2900 liquid scintillation counter. […] Ki (nM) values were determined using GraphPad Prism 5.0 software (GraphPad Software Inc, USA).
(§10) Protein concentrations (μg protein/ml) were determined using the Bicinchoninic acid assay (BCA Kit, Sigma-Aldrich, UK) and absorption read at 562 nm.
(§11) Data were analysed using the iterative non-linear regression curve fitting software supplied with GraphPad Prism 5.0. […] Data are expressed as the mean (standard error of the mean). […]

[14] = test system: sodium channels, calcium channels, phosphodiesterases or NF-κB; conditions: cited from earlier work
TSPO [15] = assay: Competition binding assay with [3H]PK11195 and unlabelled vinpocetine in human brain membranes; conditions: average of HAB and LAB means; read-out: mean Ki value of HABs and LABs
Description: as §7, §8, §9, §10, §11

TSPO [16] = biological target: T3, TSPO (Rattus norvegicus, UniProt P16257); conditions: rat heart; cited from earlier work
T3 construct: 200 nM in the rat heart (Gulyas et al. 2005); host or cells: rat heart

TSPO [17] = biological target: T1, TSPO; conditions: high affinity interaction (<100 nM) excluded; not formally measured; cited from earlier work
Target sequence in this assay (P30536 whole entry): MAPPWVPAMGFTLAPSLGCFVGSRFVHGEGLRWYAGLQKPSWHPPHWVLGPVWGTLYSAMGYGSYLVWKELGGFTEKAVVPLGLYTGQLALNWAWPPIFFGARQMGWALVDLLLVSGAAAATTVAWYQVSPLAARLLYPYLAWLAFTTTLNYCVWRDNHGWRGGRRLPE

TSPO [18] = biological target: T1, TSPO; assay: Competition binding assay with [3H]PK11195 and unlabelled vinpocetine in human brain membranes; design: Ki MAB; Vinpocetine Ki, MAB; conditions: A/T subjects, mixed affinity binder, human brain, mean (SEM), read-out: Vinpocetine Ki, MAB
Description: as §7, §8, §9, §10, §11

[19] = low affinity binders, human brain, read-out: Ki LAB
[20] = high affinity binders, nM, read-out: Ki HAB
[21] = grouping of ligands into 3 distinct affinities, read-out: affinity for the "Low Affinity receptor"
[22] = mixed affinity binders, two values given, human brain, read-out: Ki MAB, second (low affinity) value
[23] = mixed affinity binders, two values given, read-out: Ki MAB, first (high affinity) value

Ki (TSPO [1])	SMILES	Ki (TSPO [2]; [19])	Ki (TSPO [3]; [20])	ratio of specific signal, LAB (TSPO [4])	LAB/HAB (TSPO [4])	ratio of specific signal, HAB (TSPO [4])	ratio of specific signal, MAB (TSPO [4])	also measured
4.8 ± 0.4 nM	COc1ccc(OC)c(CN(C(C)=O)c2cc(F)ccc2Oc2ccccc2)c1 [DAA1106]	13.1 ± 1.3 nM	2.8 ± 0.3 nM	1	4.7	4.7	2.9	
10.5 ± 0.99 nM	CCN(Cc1ccccc1)C(=O)Cn1c(=O)n(C)c2cnc(-c3ccccc3)nc21 [Emapunil]	30.3 ± 8.7 nM	2.4 ± 0.67 nM		12.6			Ki (TSPO [2]; [21]): < 31 nM
	CC(=O)N(Cc1ccccc1OCCF)c1cnccc1Oc1ccccc1 [FEPPA]							autoradiography signal (TSPO [5]): lack of signal for the LAB
	CCN(CC)C(=O)C1CCCC2C1c1c(OC)cccc1N2CCF (stereo not shown) [GE1]	145 ± 22.1 nM	12.3 ± 2.1 nM	1	11.8	11.8	6.4	Affinity shift (TSPO [6]): 11.8 fold; Ki (TSPO [7]; 6 LABs, racemate, read-out: Ki, mean of LABs): 145 nM; IC50 (TSPO [7]; individual LAB subjects, 5 nM [3H]PK11195): 103 nM and 108 nM and 162 nM and 135 nM and 276 nM and 170 nM; Ki (TSPO [7]; individual LAB subjects, read-out: Ki): 87.7 nM and 91.9 nM and 138 nM and 115 nM and 235 nM and 145 nM; Ki (TSPO [8]; 6 HABs, racemate, read-out: Ki, mean of HABs): 12.3 nM; IC50 (TSPO [8]; individual HAB subjects, 5 nM [3H]PK11195): 4.51 nM and 16.1 nM and 10.7 nM and 14.9 nM and 21.2 nM and 19.3 nM; Ki (TSPO [8]; individual HAB subjects, read-out: Ki): 3.85 nM and 13.8 nM and 9.12 nM and 12.7 nM and 18.1 nM and 16.5 nM
	COc1ccc(OC)c(CN(C(=O)CF)c2ccccc2Oc2ccccc2)c1 [PBR06]	149 ± 46.6 nM	8.6 ± 2 nM	1	17	17.3	9.2	Ki (TSPO [2]; [22]): 176 nM; Ki (TSPO [3]; [23]): 13.4 nM
	CC(=O)N(Cc1ccccc1O[11CH3])c1cnccc1Oc1ccccc1 [PBR28]			1	55	55.3	28.2	
	COc1ccccc1CN(C(C)=O)c1cnccc1Oc1ccccc1 [PBR28]	188 ± 7 nM	3.4 ± 0.2 nM					Ki (TSPO [9]; LABs (2/41 subjects), read-out: Ki, single class of low affinity sites): 187 ± 19.7 nM; Ki (TSPO [9]; MABs (12/41 subjects), read-out: Ki, two-site model, low affinity site): 297 ± 43.3 nM; Ki (TSPO [10]; HABs (27/41 subjects), read-out: Ki, single class of high affinity sites): 2.17 ± 0.17 nM; Ki (TSPO [10]; MABs (12/41 subjects), read-out: Ki, two-site model, high affinity site): 2.23 ± 0.31 nM; Ki (TSPO [2]; [22]): 313 nM; Ki (TSPO [3]; [23]): 4 nM; Ki (TSPO [11]): 200 nM; Ki (TSPO [12]): 4 nM
	CCC(C)N(C)C(=O)c1cc2ccccc2c(-c2ccccc2Cl)n1 (stereo not shown) [PK11195, 1-(2-Chlorophenyl)-N-methyl-N-(1-methylpropyl)-3-isoquinolinecarboxamide]							difference in binding affinity to Ala147TSPO and Thr147TSPO (TSPO [4]; assay as in Owen et al (2011) J Nucl Med 52, 24-32): No significant difference in binding affinity has been detected
	CCOC(=O)C1=C[C@]2(CC)CCCN3CCc4c(n1c1ccccc41)[C@@H]32 [Vinpocetine, ethyl apovincaminate]							Ki (TSPO [13]): 777 nM; concentrations required for these effects ([14]; phosphodiesterase inhibition, blockade of sodium and calcium channels): 1 to 44 µM; affinity for these targets (Ki) ([14]; sodium channels, calcium channels, phosphodiesterases or NF-κB): Ki in the uM range; Ki (TSPO [15]): 443 nM; reported binding affinity (TSPO [16]): 200 nM; binding affinity for the TSPO in humans (TSPO [17]): ≥ 100 nM; Ki (TSPO [18]; listed as vinpocetine): 332 nM; Ki (TSPO [18]): 332 nM

SMILES	Ki (TSPO [1])	Ki (TSPO [2]; [19])	Ki (TSPO [3]; [20])	ratio of specific signal, LAB (TSPO [4])	LAB/HAB (TSPO [4])	ratio of specific signal, HAB (TSPO [4])	ratio of specific signal, MAB (TSPO [4])	also measured
CCN(CC)C(=O)Cc1c(-c2ccc(OCCCF)cc2)nc2ccc(Cl)cn12 [PBR111]	30.3 ± 4.1 nM	61.8 ± 10.7 nM	15.6 ± 3.7 nM	1	4	4.0	2.5	Ki (TSPO [2]; [21]): ~60 nM; Ki (TSPO [11]): 62 nM; Ki (TSPO [12]): 16 nM
